In patent US20200326355A1, “Methods and Systems to Measure Cannabidiol (CBD)” (Laboratory Corporation of America Holdings, priority 2019, published 2020):

Assay: LC-MS/MS measurement of hydrolyzed cannabinoid metabolites in urine of donors known to be CBD users
Settings: urine of seven known CBD users abstaining from marijuana

| Structure (SMILES) | carboxy-THC level in donated samples (13 of 16 samples detectible, all but one below the bound) | Parent THC detection in donated samples (16 samples) |
| --- | --- | --- |
| CCCCCc1cc(O)c2c(c1)OC(C)(C)[C@@H]1CCC(C(=O)O)=C[C@@H]21 [COO-THC, 11-carboxy Δ9-THC] | less than 15 ng/mL | – |
| CCCCCc1cc(O)c2c(c1)OC(C)(C)[C@@H]1CCC(C)=C[C@@H]21 [THC, Tetrahydrocannabinol] | – | not detected |
